{"source": "patent US20040116346A1", "about": "“Affinity small molecules for the EPO receptor” (priority 2002, published 2004)", "key": {"EPO-R modulating domain": {"target": "T1, EPO-R modulating domain (Homo sapiens, UniProt P19235)", "T1 sequence (P19235 25-508)": "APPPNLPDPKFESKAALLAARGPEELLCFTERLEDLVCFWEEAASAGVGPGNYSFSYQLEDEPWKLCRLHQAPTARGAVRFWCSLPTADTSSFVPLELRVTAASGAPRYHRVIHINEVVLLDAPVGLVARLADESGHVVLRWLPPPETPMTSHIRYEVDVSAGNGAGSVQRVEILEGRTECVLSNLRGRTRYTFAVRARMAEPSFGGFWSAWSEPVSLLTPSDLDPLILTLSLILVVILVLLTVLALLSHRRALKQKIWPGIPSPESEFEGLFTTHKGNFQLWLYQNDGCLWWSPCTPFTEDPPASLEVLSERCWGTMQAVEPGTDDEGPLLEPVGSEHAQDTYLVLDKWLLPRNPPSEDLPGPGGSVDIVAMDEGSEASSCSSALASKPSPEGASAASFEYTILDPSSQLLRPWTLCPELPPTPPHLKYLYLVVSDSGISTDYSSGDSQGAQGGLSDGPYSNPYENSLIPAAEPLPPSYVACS", "conditions": "cited from earlier work"}, "[1]": {"system": "carboplatin-treated 8 week old C57BL mice", "assay": "Carboplatin induced anemia model (hematocrit)", "format": "in vivo, mouse", "method": "Mice were treated with Carboplatin agent (available from Sigma, used regularly in chemotherapy) and a drop in hematocrit was induced. […] (FIGS. 9-11)\nDetermination of Effect of Non-peptide EPO-R Binding Small Molecule on Hematocrit in Carboplatin-Induced Anemia in 8 Week C57BI Male Mice\nPreparation of injection solutions: Vehicle—Saline with 0.1 mg/mL BSA; Add 30 mg of BSA to 300 mL Saline; Vacuum filter under sterile conditions in laminar flow hood; Aliquot the saline (0.1 mg/mL BSA) solution into mini-sorp tubes. At least 41×7 mL aliquots should be prepared. Place caps on the tubes and store refrigerated at 4° C.;\nCarboplatin—Dose of 120 mg/kg: Calculations for single injection given to 36 male mice (8 wks old˜25 g): […]×0.025 kg×36 mice=108 mg; Injections are delivered i.p. in a volume of 0.5 cc/mouse=0.5 cc/mouse×36 mice=18 cc; Carboplatin at 6 mg/mL for 36 mice: 108 mg/18 cc.; 120 mg/20 cc; On day of injection, add 120 mg carboplatin (Sigma #C2538) to 20 cc saline in a 100 cc beaker containing a stirring bar. Cover beaker with parafilm. Mix until the carboplatin has completely dissolved.\n11 nmole/kg/mouse/day×0.025 kg×12 mice=3.3 nmoles/day; Injections are delivered i.p. in a volume of 0.5 cc/mouse/day=0.5 cc/mouse/day×12 mice=6 cc/day; non-peptide EPO-R binding small molecule for […]: 3.3 nmoles/6 cc each day: 3.85 nmole/7 cc each day; non-peptide EPO-R binding small molecule aliquot at 2 mM=2 nmole/uL; 3.85 nmole per day in 7 cc (0.55 nmole/mL); Therefore: 3.85 nmole divided by 2 nmole/uL stock=1.925 uL at 2 mM; Prepare in advance at least 10 aliquots of non-peptide EPO-R binding small molecule at 2 mM in small microfuge tubes, each with a volume of 2 uL. Freeze these aliquots; On each day of injections, add 1 thawed aliquot of the non-peptide EPO-R binding small molecule at 2 mM containing a 2 uL volume to a tube containing 7 cc of sterile saline (0.1 mg/mL BSA). […]"}, "TF-1 and UT-7 cells": {"system": "TF-1 and UT-7 cells", "assay": "biological testing in cell lines (cell proliferation assay and cell signaling assay)", "format": "cell-based", "from_the_text": "Compounds identified in the initial screen were further tested for their biological activity in two assays: a cell proliferation assay and a cell signaling assay in TF-1 and UT-7 cells. The hit rate in cell proliferation was 0.16%; hit rate in cell signaling was 0.25%.\nAt the end of the biological testing in cell lines TF-1 and UT-7, E4, E5, E5 analogs and E6 molecules were some of the compounds identified as showing the best activity.\nCompounds identified in the initial screen were further tested for their biological activity in two assays: a cell proliferation assay and a cell signaling assay in TF-1 cells. The hit rate in cell proliferation was 0.16%; hit rate in cell signaling was 0.25%.\nAt the end of the biological testing in cell line, E4, E5, E5 analog, and E6 molecules were some of the compounds identified as showing the best activity."}, "[2]": {"system": "Mouse or human bone marrow cells", "assay": "Formation of erythroid colonies (CFU-e, BFU-e) from bone marrow in methylcellulose", "format": "cell-based", "conditions": "mouse and human bone marrow", "method": "Mouse or human bone marrow cells were stimulated in methylcellulose for 7 days (mouse) or 14 days (human) with non-peptide EPO-R modulators. Formation of erythroid colonies was observed. (See FIGS. 6 to 8)\n(1) Dilute human bone marrow 1:1 with sterile PBS. (2) Slowly layer bone marrow into 50 ml tubes containing 20 ml of LSM Lymphocyte separation medium (ICN/Cappel—cat #50494). 50 ml bone marrow will yield 2 tubes. (3) Spin tubes at 2000 rpm for 30 minutes with brake off. (4) Slowly take out the middle layer using a 10 ml pipette and transfer into a new 50 ml tube. (5) Add PBS +0.5% BSA +5 mM EDTA to tube for washing. (6) Spin tube for 5 minutes at speed 4 with brake on. (7) Repeat wash step 2 more times. (8) After 3rd wash, resuspend pellet in SF Iscoves' MDM medium. (9) Count by diluting cells in 3% acetic acid. (10) Dilute cells to desired concentration (5×10^5 cells/ml) and seed onto methylcellulose.\n(1) Tubes containing 3.0 ml of methylcellulose medium (Stemcell Technology, cat #H4230) supplemented with 50 ng/ml hSCF are prepared. (Alternatively the methylcellulose could be supplemented with 50 ng/ml hSCF, 20 ng/ml of hIL-3 and hIL-6). (2) Compounds or EPO of desired concentrations are added to the tubes. […] Colonies are scored on day twelve.\nBone marrow cells were isolated from mouse femurs. […] The colonies were scored on day seven. […]"}, "[3]": {"system": "cortical neurons isolated from embryonic day 18 rats", "assay": "glutamate-induced neuronal death in cultured cortical neurons", "format": "cell-based, rat", "conditions": "24 hours pre-treatment, 300 uM glutamate for 24 hours", "method": "Primary cultured cells were used as a model to evaluate the subject small molecule effect on CNS. Glutamate neurotoxicity can be most directly studied using neurons prepared from the brain at the late embryonic stage and subsequently cultured for maturation. To examine the effect of the subject small molecules (E5A24 and E5A29) on glutamate-induced neuronal death, cortical neurons isolated from embryonic day 18 rats, were cultured for 10 days. Subsequently, neurons were treated for 24 hours with or without the subject small molecules, and further exposed to 300 uM glutamate for 24 hours. After glutamate was washed out, the cells were cultured for another 24 hours. During the glutamate challenge and subsequent culture, the subject small molecules were absent. Finally, the cell viability was examined."}, "[4]": {"system": "P-19 cells (a neural-like embryonal carcinoma cell line)", "assay": "anti-apoptotic effect in P-19 cells upon withdrawal of serum", "format": "cell-based", "conditions": "treated 24 hours prior to serum withdrawal; serum withdrawn for 48 hours", "method": "Experiments were performed according to the described protocol. The anti-apoptotic effect of the subject small molecules was evaluated in P-19 cells (a neural-like embryonal carcinoma cell line) that undergo apoptosis upon withdrawal of serum. Briefly, cells were treated with small molecules for 24 hours prior to serum withdrawal. Serum was withdrawn for 48 hours in the presence or absence of a subject small molecule (EM5 and E5A24). At the end of that period, cell survival was evaluated. […] This Figure is representative of the experiment and of the subject small molecules. The experiments were performed according to literature procedures (Siren et. al., Proc. Nat. Acad. Sci. 98, 4044, 2001). Cell survival was determined according to the protocol described for cellular proliferation."}, "[5]": {"system": "Bcl-xL protein in UT-7 and TF-1 cells", "assay": "up-regulation of Bcl-xL expression (immunoprecipitation, western blot)", "format": "cell-based", "method": "When the subject compounds were tested for anti-apoptotic effect was evaluated, these antibodies were used: Anti-Bcl-XL/s antibody (Santa Cruz Biotechnology, SC-1041), Anti-Bcl-XL antibody (Santa Cruz Biotechnology, SC8392)\nA number of molecules of the subject invention were evaluated in in vitro systems that reflect the condition of cerebral ischemia and metabolic stress. Firstly, it is known that one of the mechanisms by which EPO prevents neuronal apoptosis is by up-regulating the expression levels of Bcl-x1 protein, which is a well-described anti-apoptotic protein. Thus, cells-lines that are known to be EPO responsive (UT-7 and TF-1, used in previous studies) were used as a cellular system to examine the small molecules' anti-apoptotic activity through EPO-R.\nThe evaluation was performed by starving the cells, stimulating the cells with compounds at appropriate concentrations (or no stimulation for control samples) and immunoprecipitating the cell lysates with antibody specific to both forms (short and long) of Bcl-xL protein. The amount of Bcl-xL (long protein form, known to have anti-apoptotic activity) protein was evaluated by western blot analysis."}}, "note": "“Also recorded” adds a separate entry of the source."}
{"compound": "QRVEILEGRTECVLSNLRGRTRY (listed as Homo sapiens) [SEQ ID NO:1]", "values": [{"measurement": "modulation of the activity of the EPO-R", "setting": "EPO-R modulating domain", "result": "modulation of the activity of the EPO-R in the presence or absence of the ligand"}]}
{"compound": "Cn1ncc(S(=O)Oc2ccccc2)c(Cl)c1=O", "note": "(stereo not drawn) [Compound E6]", "values": [{"measurement": "cooperative effect with EPO on hematocrit levels", "setting": "[1]; compound given i.p.", "result": "cooperative effect"}, {"measurement": "hematocrit levels in animals treated with carboplatin", "setting": "[1]; mouse, in vivo", "result": "restore hematocrit levels"}, {"measurement": "maximum activity compared to EPO natural hormone", "setting": "TF-1 and UT-7 cells; cell line (TF-1 cells)", "result": "maximum activity comparable to that of the maximum activity of EPO"}, {"measurement": "maximum activity compared to EPO natural hormone", "setting": "TF-1 and UT-7 cells; cell lines TF-1 and UT-7, in the presence of low levels of EPO", "result": "maximum activity comparable to that of the maximum activity of EPO"}, {"measurement": "CFU-e formation compared with EPO", "setting": "[2]", "result": "stimulate CFU-e formation to the same extent as EPO"}]}
{"compound": "Cc1n[nH]c2c1C(c1ccco1)C1=C(CC(C)(C)CC1=O)N2", "note": "(stereo not drawn) [Compound E5A29]", "values": [{"measurement": "cell survival / glutamate induced neuronal death", "setting": "[3]", "result": "prevented glutamate induced neuronal death in a dose-responsive manner; also recorded: increased cell survival"}, {"measurement": "increase of cell survival after glutamate challenge", "setting": "[3]", "result": 60, "unit": "%"}]}
{"compound": "Cc1cc(NCC2CC2)n2nc(Nc3cc(Cl)ccc3C)nc2n1", "note": "[EM5]", "values": [{"measurement": "cell survival / viability after withdrawal of serum", "setting": "[4]", "result": "protect cells from apoptosis; also recorded: increased cell viability"}, {"measurement": "Bcl-xL expression", "setting": "[5]; TF-1 cells", "result": "up-regulation of Bcl-xL expression"}, {"measurement": "Bcl-xL expression", "setting": "[5]; UT-7 cells", "result": "up-regulation of Bcl-xL expression"}, {"measurement": "up-regulation of Bcl-xL protein", "setting": "[5]; both cell lines (UT-7 and TF-1)", "result": "induced up-regulation of Bcl-xL protein in a dose-responsive manner"}]}
